Marks after values point to notes of the source that are not given here.
Experiment: Safety and tolerability
Assay type: in vivo, human
[1] = 20 mg bid 11 d solution, fasted, nonelderly
[2] = 50 mg bid 11 d solution, fasted, nonelderly
[3] = 100 mg bid 11 d solution, fed, nonelderly
[4] = 200 mg bid 7 d capsule, fasted, elderly
[5] = 200 mg bid 11 d solution, fasted, nonelderly
[6] = 300 mg bid 7 d capsule, fasted, elderly
[7] = 400 mg bid 11 d capsule, fasted, nonelderly
[8] = 500 mg bid 11 d capsule, fed, nonelderly
[9] = 500 mg bid 11 d tablet, fasted, elderly
[10] = 800 mg bid 11 d tablet, fasted, elderly

CCCOc1ccc([C@H]2CNC(=O)N2c2ccc3[nH]cnc3c2)cc1 [PQ912]
Abdominal pain, number of TEAEs [1]: 1 [1]
Abdominal pain, number of subjects [1]: 1 [1]
Headache, number of TEAEs [1]: 7
Headache, number of subjects [1]: 3
Neck pain, number of TEAEs [1]: 1 [1]
Neck pain, number of subjects [1]: 1 [1]
Number of AEs [1]: 16
Subjects with AEs, number [1]: 7
Subjects with AEs, percentage of total subjects [1]: 87.5%
Abdominal pain, number of TEAEs [2]: 1 [1]
Abdominal pain, number of subjects [2]: 1 [1]
Chest pain, number of TEAEs [2]: 1 [1]
Chest pain, number of subjects [2]: 1 [1]
Dizziness, number of TEAEs [2]: 1 [1]
Dizziness, number of subjects [2]: 1 [1]
Headache, number of TEAEs [2]: 8
Headache, number of subjects [2]: 4
Injection site pain, number of TEAEs [2]: 6
Injection site pain, number of subjects [2]: 5
Nausea, number of TEAEs [2]: 1 [1]
Nausea, number of subjects [2]: 1 [1]
Number of AEs [2]: 22
Subjects with AEs, number [2]: 7
Subjects with AEs, percentage of total subjects [2]: 87.5%
Back pain, number of TEAEs [3]: 1 [1]
Back pain, number of subjects [3]: 1 [1]
Chest pain, number of TEAEs [3]: 1 [1]
Chest pain, number of subjects [3]: 1 [1]
Headache, number of TEAEs [3]: 4
Headache, number of subjects [3]: 3
Injection site pain, number of TEAEs [3]: 3 [3]
Injection site pain, number of subjects [3]: 3 [3]
Number of AEs [3]: 16
Presyncope, number of TEAEs [3]: 6 [6]
Presyncope, number of subjects [3]: 6 [6]
Subjects with AEs, number [3]: 8
Subjects with AEs, percentage of total subjects [3]: 100.0%
Number of AEs [4]: 3
Subjects with AEs, number [4]: 3
Subjects with AEs, percentage of total subjects [4]: 50.0%
Abdominal pain, number of TEAEs [5]: 1 [1]
Abdominal pain, number of subjects [5]: 1 [1]
Back pain, number of TEAEs [5]: 1 [1]
Back pain, number of subjects [5]: 1 [1]
Chest pain, number of TEAEs [5]: 1 [1]
Chest pain, number of subjects [5]: 1 [1]
Diarrhea, number of TEAEs [5]: 1 [1]
Diarrhea, number of subjects [5]: 1 [1]
Flatulence, number of TEAEs [5]: 1 [1]
Flatulence, number of subjects [5]: 1 [1]
Nausea, number of TEAEs [5]: 1 [1]
Nausea, number of subjects [5]: 1 [1]
Neck pain, number of TEAEs [5]: 1 [1]
Neck pain, number of subjects [5]: 1 [1]
Number of AEs [5]: 11
Subjects with AEs, number [5]: 6
Subjects with AEs, percentage of total subjects [5]: 75.0%
Back pain, number of TEAEs [6]: 1 [1]
Back pain, number of subjects [6]: 1 [1]
Headache, number of TEAEs [6]: 4 [4]
Headache, number of subjects [6]: 4 [4]
Injection site pain, number of TEAEs [6]: 4 [4]
Injection site pain, number of subjects [6]: 4 [4]
Number of AEs [6]: 13
Pain in extremity, number of TEAEs [6]: 2
Pain in extremity, number of subjects [6]: 1
Subjects with AEs, number [6]: 6
Subjects with AEs, percentage of total subjects [6]: 75.0%
Abdominal pain, number of TEAEs [7]: 1 [1]
Abdominal pain, number of subjects [7]: 1 [1]
Back pain, number of TEAEs [7]: 1 [1]
Back pain, number of subjects [7]: 1 [1]
Headache, number of TEAEs [7]: 4
Headache, number of subjects [7]: 3
Number of AEs [7]: 9
Presyncope, number of TEAEs [7]: 1 [1]
Presyncope, number of subjects [7]: 1 [1]
Subjects with AEs, number [7]: 5
Subjects with AEs, percentage of total subjects [7]: 62.5%
Abdominal pain, number of TEAEs [8]: 1 [1]
Abdominal pain, number of subjects [8]: 1 [1]
Abnormal sensation in eye, number of TEAEs [8]: 2 [2]
Abnormal sensation in eye, number of subjects [8]: 2 [2]
Back pain, number of TEAEs [8]: 5
Back pain, number of subjects [8]: 4
Diarrhea, number of TEAEs [8]: 1 [1]
Diarrhea, number of subjects [8]: 1 [1]
Dizziness, number of TEAEs [8]: 2 [2]
Dizziness, number of subjects [8]: 2 [2]
Headache, number of TEAEs [8]: 3 [3]
Headache, number of subjects [8]: 3 [3]
Nausea, number of TEAEs [8]: 1 [1]
Nausea, number of subjects [8]: 1 [1]
Number of AEs [8]: 30 ^‡
Pain in extremity, number of TEAEs [8]: 2 [2]
Pain in extremity, number of subjects [8]: 2 [2]
Subjects with AEs, number [8]: 8
Subjects with AEs, percentage of total subjects [8]: 100.0%
Abdominal pain, number of TEAEs [9]: 1 [1]
Abdominal pain, number of subjects [9]: 1 [1]
Back pain, number of TEAEs [9]: 1 [1]
Back pain, number of subjects [9]: 1 [1]
Constipation, number of TEAEs [9]: 2 [2]
Constipation, number of subjects [9]: 2 [2]
Contusion, number of TEAEs [9]: 3
Contusion, number of subjects [9]: 2
Diarrhea, number of TEAEs [9]: 1 [1]
Diarrhea, number of subjects [9]: 1 [1]
Dizziness, number of TEAEs [9]: 2
Dizziness, number of subjects [9]: 1
Headache, number of TEAEs [9]: 4
Headache, number of subjects [9]: 2
Injection site pain, number of TEAEs [9]: 1 [1]
Injection site pain, number of subjects [9]: 1 [1]
Nausea, number of TEAEs [9]: 4
Nausea, number of subjects [9]: 3
Number of AEs [9]: 32
Subjects with AEs, number [9]: 9
Subjects with AEs, percentage of total subjects [9]: 75.0%
Chest pain, number of TEAEs [10]: 2
Chest pain, number of subjects [10]: 1
Constipation, number of TEAEs [10]: 2 [2]
Constipation, number of subjects [10]: 2 [2]
Contusion, number of TEAEs [10]: 1 [1]
Contusion, number of subjects [10]: 1 [1]
Diarrhea, number of TEAEs [10]: 1 [1]
Diarrhea, number of subjects [10]: 1 [1]
Flatulence, number of TEAEs [10]: 3 [3]
Flatulence, number of subjects [10]: 3 [3]
Headache, number of TEAEs [10]: 2 [2]
Headache, number of subjects [10]: 2 [2]
Nausea, number of TEAEs [10]: 2 [2]
Nausea, number of subjects [10]: 2 [2]
Neck pain, number of TEAEs [10]: 1 [1]
Neck pain, number of subjects [10]: 1 [1]
Number of AEs [10]: 34
Pollakiuria, number of TEAEs [10]: 2 [2]
Pollakiuria, number of subjects [10]: 2 [2]
Subjects with AEs, number [10]: 6
Subjects with AEs, percentage of total subjects [10]: 100%
subjects withdrawn because of a TEAE (urticaria papular) (500-mg bid, 11 days, capsule, fed, about 3.5 hours after the 18th dose): One subject
drug-related TEAEs, events (after multiple doses, 102 subjects (PQ912 or placebo)): 113
subjects reporting drug-related TEAEs (after multiple doses, of 102 subjects (PQ912 or placebo)): 47
drug-related TEAEs, events (after single doses, 104 subjects (PQ912 or placebo)): 25
subjects reporting drug-related TEAEs (after single doses, of 104 subjects (PQ912 or placebo)): 16
subjects with clinically significant changes in clinical laboratory parameters (increases in serum potassium, erythrocytes, leukocytes): four subjects
Back pain, number of TEAEs (single 30 mg solution, fasted): 1 [1]
Back pain, number of subjects (single 30 mg solution, fasted): 1 [1]
Number of AEs (single 30 mg solution, fasted): 2
Subjects with AEs, number (single 30 mg solution, fasted): 2
Subjects with AEs, percentage of total subjects (single 30 mg solution, fasted): 33.3%
Back pain, number of TEAEs (single 50 mg solution, fasted): 1 [1]
Back pain, number of subjects (single 50 mg solution, fasted): 1 [1]
Fatigue, number of TEAEs (single 50 mg solution, fasted): 1 [1]
Fatigue, number of subjects (single 50 mg solution, fasted): 1 [1]
Headache, number of TEAEs (single 50 mg solution, fasted): 3
Headache, number of subjects (single 50 mg solution, fasted): 2
Injection site pain, number of TEAEs (single 50 mg solution, fasted): 1 [1]
Injection site pain, number of subjects (single 50 mg solution, fasted): 1 [1]
Nausea, number of TEAEs (single 50 mg solution, fasted): 1 [1]
Nausea, number of subjects (single 50 mg solution, fasted): 1 [1]
Number of AEs (single 50 mg solution, fasted): 11
Subjects with AEs, number (single 50 mg solution, fasted): 5
Subjects with AEs, percentage of total subjects (single 50 mg solution, fasted): 83.3%
Vomiting, number of TEAEs (single 50 mg solution, fasted): 2
Vomiting, number of subjects (single 50 mg solution, fasted): 1
Back pain, number of TEAEs (single 100 mg solution, fasted): 3 [3]
Back pain, number of subjects (single 100 mg solution, fasted): 3 [3]
Fatigue, number of TEAEs (single 100 mg solution, fasted): 1 [1]
Fatigue, number of subjects (single 100 mg solution, fasted): 1 [1]
Number of AEs (single 100 mg solution, fasted): 7
Subjects with AEs, number (single 100 mg solution, fasted): 3
Subjects with AEs, percentage of total subjects (single 100 mg solution, fasted): 37.5%
Back pain, number of TEAEs (single 400 mg solution, fasted): 2 [2]
Back pain, number of subjects (single 400 mg solution, fasted): 2 [2]
Headache, number of TEAEs (single 400 mg solution, fasted): 1 [1]
Headache, number of subjects (single 400 mg solution, fasted): 1 [1]
Injection site pain, number of TEAEs (single 400 mg solution, fasted): 1 [1]
Injection site pain, number of subjects (single 400 mg solution, fasted): 1 [1]
Number of AEs (single 400 mg solution, fasted): 7
Presyncope, number of TEAEs (single 400 mg solution, fasted): 1 [1]
Presyncope, number of subjects (single 400 mg solution, fasted): 1 [1]
Subjects with AEs, number (single 400 mg solution, fasted): 4
Subjects with AEs, percentage of total subjects (single 400 mg solution, fasted): 33.3%
Nausea, number of TEAEs (single 800 mg capsule, fasted): 1 [1]
Nausea, number of subjects (single 800 mg capsule, fasted): 1 [1]
Number of AEs (single 800 mg capsule, fasted): 2
Subjects with AEs, number (single 800 mg capsule, fasted): 1
Subjects with AEs, percentage of total subjects (single 800 mg capsule, fasted): 16.7%
Vomiting, number of TEAEs (single 800 mg capsule, fasted): 1 [1]
Vomiting, number of subjects (single 800 mg capsule, fasted): 1 [1]
Headache, number of TEAEs (single 1200 mg capsule, fed): 1 [1]
Headache, number of subjects (single 1200 mg capsule, fed): 1 [1]
Number of AEs (single 1200 mg capsule, fed): 2
Subjects with AEs, number (single 1200 mg capsule, fed): 1
Subjects with AEs, percentage of total subjects (single 1200 mg capsule, fed): 16.7%
Nausea, number of TEAEs (single 1800 mg tablet, fasted): 2 [2]
Nausea, number of subjects (single 1800 mg tablet, fasted): 2 [2]
Number of AEs (single 1800 mg tablet, fasted): 2
Subjects with AEs, number (single 1800 mg tablet, fasted): 2
Subjects with AEs, percentage of total subjects (single 1800 mg tablet, fasted): 33.3%
overall safety and tolerability (single doses up to 3600 mg, bid doses up to 800 mg): safe and well tolerated
serious adverse events (whole study): no serious adverse events
vital signs, 12-lead ECGs, telemetry, physical examinations (whole study): no clinically significant findings
